Results: ChEMBL document CHEMBL3351492, “Novel 3,6-bis(imidazolidine)acridines as effective photosensitizers for photodynamic therapy” (Bioorg Med Chem, 2014)
Activity calls are given as the source filed them. The calls are words filed in the database; no cut-off is given here.

Legend:
A2780 [1] = assay: Drug uptake in human A2780 cell autophagic vacoules at 0.5 uM irradiated for 1 hr followed by incubated with LysoTracker relative to non-irradiated cellsin presence of MDC; type: ADME, cell-based; details: a2780, 1 h
L1210 [2] = assay: Cytotoxicity against mouse L1210 cells assessed as inhibition of cell viability for 48 hrs in 1.05 J/cm'2 UV-A irradiation by MTT assay; type: functional, cell-based; details: L1210, light or radiation study
L1210 [3] = assay: Cytotoxicity against mouse L1210 cells assessed as inhibition of cell viability for 72 hrs in 1.05 J/cm'2 UV-A irradiation by MTT assay; type: functional, cell-based; details: L1210, light or radiation study
A2780 [4] = assay: Cytotoxicity against human A2780 cells assessed as inhibition of cell viability for 48 hrs in dark by MTT assay; type: functional, cell-based; details: A2780, 48 h
A2780 [5] = assay: Cytotoxicity against human A2780 cells assessed as inhibition of cell viability for 48 hrs in 1.05 J/cm'2 UV-A irradiation by MTT assay; type: functional, cell-based; details: A2780, light or radiation study
A2780 [6] = assay: Cytotoxicity against human A2780 cells assessed as inhibition of cell viability for 72 hrs in dark by MTT assay; type: functional, cell-based; details: A2780, 72 h
A2780 [7] = assay: Cytotoxicity against human A2780 cells assessed as inhibition of cell viability for 72 hrs in 1.05 J/cm'2 UV-A irradiation by MTT assay; type: functional, cell-based; details: A2780, light or radiation study
[8] = Cytotoxicity against mouse NIH/3T3 cells assessed as inhibition of cell viability for 48 hrs in dark by MTT assay; type: cell-based; details: NIH3T3, 48 h
[9] = Cytotoxicity against mouse NIH/3T3 cells assessed as inhibition of cell viability for 48 hrs in 1.05 J/cm'2 UV-A irradiation by MTT assay; type: cell-based; details: NIH3T3, light or radiation study
[10] = Cytotoxicity against mouse NIH/3T3 cells assessed as inhibition of cell viability for 72 hrs in dark by MTT assay; type: cell-based; details: NIH3T3, 72 h
[11] = Cytotoxicity against mouse NIH/3T3 cells assessed as inhibition of cell viability for 72 hrs in 1.05 J/cm'2 UV-A irradiation by MTT assay; type: cell-based; details: NIH3T3, light or radiation study
A2780 [12] = assay: Induction of oxidative stress in human A2780 cells assessed as reactive oxygen species production at 0.5 uM for 1 hr in 1.05 J/cm'2 UV-A irradiation by DHE assay; type: functional, cell-based
A2780 [13] = assay: Genotoxicity in human A2780 cells assessed as DNA damage at 0.05 to 1 uM for 1 hr in 1.05 J/cm'2 UV-A irradiation measured after 12 hrs by comet assay; type: toxicity, cell-based; details: a2780, 1 h
A2780 [14] = assay: Drug uptake in human A2780 cell nucleus at 3 uM irradiated for 1 hr followed by incubated with 0.1 uM SytoRed for 35 mins; type: ADME, cell-based; details: a2780, 1 h
A2780 [15] = assay: Drug uptake in human A2780 cell lysosome assessed per focused cells at 3 uM irradiated for 1 hr followed by incubated with LysoTracker; type: ADME, cell-based; details: a2780, 1 h
A2780 [16] = assay: Drug uptake in human A2780 cell mitochondria assessed per focused cells at 3 uM irradiated for 1 hr followed by incubated with 0.1 uM MitoRed for 15 mins; type: ADME, cell-based; details: a2780, 1 h
A2780 [17] = assay: Induction of apoptosis in human A2780 cells assessed as effect on cell morphology at 1 uM for 1 hr in dark measured after 4 hrs by fluorescence microscopy; type: functional, cell-based
A2780 [18] = assay: Induction of apoptosis in human A2780 cells assessed as volume and condensation of DNA chromatin at 1 uM for 1 hr in 1.05 J/cm'2 UV-A irradiation measured after 4 hrs by fluorescence microscopy; type: functional, cell-based
A2780 [19] = assay: Induction of apoptosis in human A2780 cells assessed as blebbing of cell membrane at 1 uM for 1 hr in 1.05 J/cm'2 UV-A irradiation measured after 24 hrs by fluorescence microscopy; type: functional, cell-based
A2780 [20] = assay: Induction of apoptosis in human A2780 cells assessed as DNA ladder formation at 1 uM for 1 hr in 1.05 J/cm'2 UV-A irradiation measured after 4 hrs by agarose gel; type: functional, cell-based
A2780 [21] = assay: Induction of apoptosis in human A2780 cells assessed as DNA ladder formation at 1 uM after 4 hrs in dark by agarose gel; type: functional, cell-based
A2780 [22] = assay: Cell cycle arrest in human A2780 cells assessed as cells at sub G0 phase at 1 uM after 4 hrs in dark by PI staining/flow cytometry; type: functional
A2780 [23] = assay: Cell cycle arrest in human A2780 cells assessed as cells at sub G0 phase at 1 uM for 1 hr in 1.05 J/cm'2 UV-A irradiation measured after 4 hrs by PI staining/flow cytometry; type: functional
A2780 [24] = assay: Cell cycle arrest in human A2780 cells assessed as cells at S phase at 1 uM for 1 hr in 1.05 J/cm'2 UV-A irradiation measured after 4 hrs by PI staining/flow cytometry; type: functional
A2780 [25] = assay: Drug uptake in human A2780 cell nucleus at 0.5 uM irradiated for 1 hr followed by incubated with 0.1 uM SytoRed for 35 mins; type: ADME, cell-based; details: a2780, 1 h
A2780 [26] = assay: Drug uptake in human A2780 cell mitochondria assessed per focused cells at 0.5 uM irradiated for 1 hr followed by incubated with 0.1 uM MitoRed for 15 mins; type: ADME, cell-based; details: a2780, 1 h
A2780 [27] = assay: Drug uptake in human A2780 cell mitochondria assessed per focused cells at 0.5 uM for 1 hr in dark by incubated with 0.1 uM MitoRed for 15 mins; type: ADME, cell-based; details: a2780, 1 h
A2780 [28] = assay: Drug uptake in human A2780 cell lysosome at 0.5 uM irradiated for 1 hr followed by incubated with LysoTracker relative to non-irradiated cells; type: ADME, cell-based; details: a2780, 1 h

SMILES	IC50 (L1210 [2]) [nM]	IC50 (L1210 [3]) [nM]	IC50 (A2780 [4]) [nM]	IC50 (A2780 [5]) [nM]	IC50 (A2780 [6]) [nM]	IC50 (A2780 [7]) [nM]	Activity (A2780 [12])	Activity (A2780 [13])	further results
CCCCCN1C(=O)CN/C1=N\c1ccc2cc3ccc(/N=C4\NCC(=O)N4CCCCC)cc3nc2c1.Cl	640	590	19500	1430	13800	1090	Active	Non-toxic	Drug uptake (A2780 [1]): Active; IC50 [8]: > 50000 nM; IC50 [9]: > 30000 nM; IC50 [10]: > 50000 nM; IC50 [11]: 28400 nM; Drug uptake (A2780 [14]): Not Active; Drug uptake (A2780 [15]): 6%; Drug uptake (A2780 [16]): 7%; Activity (A2780 [17]): inactive; Activity (A2780 [18]): Active; Activity (A2780 [19]): Active; Activity (A2780 [20]): Active; Activity (A2780 [21]): inactive; Activity (A2780 [22]): 1.42%; Activity (A2780 [23]): 7.69%; Activity (A2780 [24]): 43%; Drug uptake (A2780 [25]): Not Active; Drug uptake (A2780 [26]): 2%; Drug uptake (A2780 [27]): 7%; Drug uptake (A2780 [28]): 24%
CCCCCCN1C(=O)CN/C1=N\c1ccc2cc3ccc(/N=C4\NCC(=O)N4CCCCCC)cc3nc2c1.Cl	770	640	15700	1580	9580	1260	Active	Non-toxic	
Nc1ccc2cc3ccc(N)cc3nc2c1			480	330	180	100			
